Literature values as cited in patent EP4374853A1, “SOLID FORMULATION OF ENZALUTAMIDE” (Lotus Pharmaceutical Co., Ltd., priority 2022, dated 2024).

Columns and labels:
[1] = between pH 1-11

- Solubility in aqueous media [1]: practically insoluble
- Permeability: high permeability
Structure (SMILES): CNC(=O)c1ccc(N2C(=S)N(c3ccc(C#N)c(C(F)(F)F)c3)C(=O)C2(C)C)cc1F [Enzalutamide, 4-{3-[4-cyano-3-(trifluoromethyl)phenyl]-5,5-dimethyl-4-oxo-2-sulfanylideneimiidazolidin-1-yl}-2-fluoro-N-methylbenzymide]
